Among the data in US10919889B2, “Chiral heterocyclic compound with hedgehog pathway antagonist activity, method and use thereof” (SUZHOU KINTOR PHARMACEUTICALS, INC., priority 2016, dated 2021) are inhibition values, retold here.

For this series, the target named is T1, CYP2C9 (Homo sapiens, UniProt P11712).
T1 construct: containing HLM (0.2 mg/mL), phosphate buffer (100 mM, pH 7.4); from tissue; host or cells: liver microsomes (HLM)
As to the kind of experiment: CYP liver enzyme inhibition experiment, CYP-2C9. The settings on record: human liver microsomes. The series is classed as in vitro ADME. How it is done: The five major CYP isozymes and their respective probe substrates were: CYP-1A2 (phenacetin, 30 μM), CYP-2C9 (toluenesulfonylurea, 100 μM), CYP-2C19 40 μM), CYP-2D6 (dextromethorphan, 5 μM) and CYP-3A4 (midazolam, 1 μM). All probes were used close to or below their KMS concentrations. The mixture (200 μL) was incubated in a 37° C. constant temperature water bath, containing HLM (0.2 mg/mL), phosphate buffer (100 mM, pH 7.4), NADPH […], test compound (10 μM) and the respective CYP probe substrate. Before the reaction with NADPH, the mixture was pre-incubated for 10 minutes to undergo inhibitor-enzyme interaction. After a specific period of time (10 minutes for CYP-1A2, 2D6 and 3A4; 30 minutes for CYP-2C9 and 2C19), the reaction was quenched by addition to 100 μL solution of appropriate amount of cold acetonitrile. Reaction system was centrifuged and injected into the LC-MS/MS to quantify the concentration of specific metabolite formed from the substrate and the CYP enzyme. Each test compound was tested at least three times independently.
Five major CYP isozymes and their corresponding substrates are: CYP-1A2 (phenacetin, 30 μM), […], CYP2C19 (S-mephenytoin, 40 μM), CYP2D6 (dextromethorphan, 5 μM), and CYP3A4 (midazolam, 1 μM), respectively. All probe substrates were used at or lower than their KMS concentrations.
A mixture (200 μL) can be incubated at 37° C. This mixture can comprise HLM (0.2 mg/mL), phosphate buffer (100 mM, pH at about 7.4), nicotinamide adenine dinucleotide phosphate (NADPH) […], a testing compound (compound B or compound B1), and the individual substrate for the CYP isozyme tested.
Before the start of the reaction with NADPH, the above mixture can be pre-incubated for about 10 minutes to allow inhibitor-enzyme interactions. Then at specific time points (10 minutes time point for CYP-1A2, 2D6 and 3A4; 30 minutes time point for CYP-2C9 and 2C19), the reaction can be quenched by the addition of about 100 μL cold acetonitrile. The quenched mixture can be centrifuged, and aliquots of the mixture can then be analyzed by LC-MS/MS to quantify the concentrations of specific metabolic products for each CYP isozyme. For each testing compound, at least three independent assays can be completed.
Background: Microsomes from liver hold many membrane-bound enzymes, among them those of drug oxidation.

The mark [1] stands for this setting: pH 7.4, probe tolbutamide (tolbutamide hydroxylation), Table 6, HLM, read-out: CYP-2C9 Inhibition (%).
The mark [2] stands for this setting: pH 7.4, probe toluenesulfonylurea (tolbutamide), 100 µM, at 10 μM, read-out: inhibitory activity against CYP-2C9.
[3] abbreviates: pH 7.4, probe toluenesulfonylurea (tolbutamide), 100 µM, at a concentration of 10M, read-out: inhibitory rate to CYP-2C9.
Setting [4] is: pH 7.4, probe toluenesulfonylurea (tolbutamide), 100 µM, test compound 10 μM, HLM, read-out: CYP-2C9 Inhibitory rate (%).

Read-outs that look alike come from different tables or passages of the source.

T1 sequence (P11712 whole entry): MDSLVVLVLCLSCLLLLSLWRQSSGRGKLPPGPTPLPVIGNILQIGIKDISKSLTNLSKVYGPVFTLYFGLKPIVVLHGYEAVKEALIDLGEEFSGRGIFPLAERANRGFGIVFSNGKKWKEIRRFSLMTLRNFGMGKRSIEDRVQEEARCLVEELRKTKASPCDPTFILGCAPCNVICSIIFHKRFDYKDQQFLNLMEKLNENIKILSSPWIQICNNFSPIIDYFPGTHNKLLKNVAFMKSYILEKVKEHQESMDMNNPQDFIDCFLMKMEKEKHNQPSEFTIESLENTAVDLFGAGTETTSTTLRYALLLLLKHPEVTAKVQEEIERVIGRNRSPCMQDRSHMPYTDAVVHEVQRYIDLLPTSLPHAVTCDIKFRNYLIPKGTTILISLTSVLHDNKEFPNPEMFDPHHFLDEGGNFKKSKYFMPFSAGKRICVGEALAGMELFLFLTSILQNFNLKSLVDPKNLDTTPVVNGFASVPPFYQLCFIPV

As for `Cc1cnc(-c2cc(N3CCc4nc(N5CCC(O)CC5)ncc4C3C)ncc2Cl)c(C)c1` (racemic) [B], the inhibition at 30 min, 10 µM under setting [1] is 52 ± 5.2%; the inhibition at 30 min, 10 µM under setting [2] is approximately 52%; the inhibition at 30 min, 10 µM under setting [3] is more than 50%; the inhibition at 30 min, 10 µM under setting [4] was 52 ± 5.2%.

Take `Cc1cnc(-c2cc(N3CCc4nc(N5CCC(O)CC5)ncc4[C@H]3C)ncc2Cl)c(C)c1` [Compound B1, (R)-1-(6-(5′-chloro-3,5-dimethyl-[2,4′-bipyridin]-2′-yl)-5-methyl-5,6,7,8-tetrahydropyrido[4,3-d]pyrimidin-2-yl)piperidin-4-ol]: the inhibition at 30 min, 10 µM runs as follows: under setting [1], 26 ± 6%; under setting [2], approximately 26%; under setting [3], 26%; under setting [4], 26 ± 6%.
